# According to patent US12616706B2, “Compositions and methods of use comprising substances with neural plasticity actions administered at non-psychedelic/psychotomimetic dosages and formulations” (Arbormentis LLC, priority 2019, dated 2026):
# Several values for one entry are separate records, joined by “and”; a condition that tells them apart may be missing. Identical values can stand only once.
# What was measured:
# [1] = tested on: BDNF; details: only the lower dose, 25 mg daily, 14-day period; cited from earlier work
# [2] = tested on: IMR-90; assay: Beta Gal assay, UVB induced senescence; assay type: cell-based
# Source text: Seeding occurred on Day 1, with pretreatment on Day 2, and UVB-induction and retreatment on Day 3, SABG on Day 8, and microscopy (SABG) on Day 9. […] Results for Example 6 can be seen in FIGS. 19A-27D, and Tables 4, 5, and 6 below.
# [3] = cited from earlier work
# [4] = target: 5-HT2A receptors (Homo sapiens, UniProt P28223); details: Rickli et al., 2017; cited from earlier work
# [5] = tested on: 5-HT2C; assay: 5-HT2C receptor expression in ARPE-19 cells (immunofluorescence); assay type: cell-based; details: chronic treatment with psilocin
# Description: (§1) First, the present inventors assessed the expression of three NMDAR subunits (NMDAR1, NMDAR2A, NMDAR2B) and two 5-HT2 subtypes (5-HT2A, 5-HT2C) by immunofluorescence coupled to confocal microscopy. 7,500 cells/well were plated in a 24-well plate on sterile glass coverslips. The next day, the immunofluorescence analysis was performed. The following primary antibodies were used: anti-NMDAR1A (Abcam, ab68144), NMDAR2A (Bioss, bs-3507R-TR), NMDAR2B (Bioss, bs-0222R-TR), 5-HT2A (Bioss, bs-12049R), 5-HT2C (Bioss, 2959R), and the secondary antibody goat anti-rabbit IgG (GeneTex, GTX213110-04). The images of the immunostained cells were acquired by means of a confocal microscope Zeiss LSM 800, using a 63× magnification and can be seen in FIGS. 9A-9E. ImageJ software was used to quantify the intensity of the fluorescent signal.
# (§2) 7,500 cells/well were plated in a 24-well plate on sterile glass coverslips. […] After 6 days an immunofluorescence analysis coupled to confocal microscopy was performed with the primary and secondary antibodies described above.
# [6] = tested on: collagen type I; assay: Collagen type I expression in keratocytes exposed to CM of activated U937 (qPCR); assay type: cell-based, human; details: 0.1 and 1 μM psilocin, 4, 10 and 24 h
# Description: (§3) Anti-inflammatory and anti-fibrotic effects evaluations. Cytokines expression was analyzed in human keratocytes and HCE cells exposed to the inflammatory conditioned medium (CM) of activated U937 cells.
# (§4) U937 human monocytes were differentiated to macrophages by treatment with 50 ng/mL phorbol myristate acetate (PMA) for 48 h followed by the exposure to […] lipopolysaccharide (LPS) for 1 hour. Cells were then washed and cultivated with complete RPMI for 24 hours to produce the inflammatory CM. The CM was collected, filtered and stored at −80° C. The differentiation of monocytes to macrophages was examined under an inverted phase-contrast microscope and the mRNA expression of the macrophage differentiation marker CD68 was analysed by quantitative real time PCR (qPCR). Cells were then washed and cultivated with complete DMEM for 24 hours to produce the CM. The CM was collected, filtered and stored at −80° C.
# (§5) At 4 and 10 or at 4, 10 and 24 h cells were detached […] extracted to analyze the expression of pro-inflammatory cytokines (IL-1β, TNF-α, IL-8, IL-12, IFNγ). The expression of type collagen I and VEGF was analysed on mRNA extracted from keratocyte cell cultures. The experiments were performed three times.
# [7] = tested on: Human corneal epithelial (HCE) cells; assay: Cell viability, MTT test, HCE cells; assay type: cell-based
# Source text: (§6) Cell cultures. Human corneal epithelial (HCE) cells were obtained from the American Type Culture Collection. U937 human monocytes cell line was purchased from Thermo Scientific.
# (§7) With this procedure, only viable cells with functioning mitochondria can oxidize MTT to a violet-red reaction product.
# [8] = tested on: VEGF; assay: VEGF expression in keratocytes exposed to CM of activated U937 (qPCR); assay type: cell-based, human; details: 0.1 and 1 μM psilocin, 4, 10 and 24 h
# Description: as §3, §4, §5
# [9] = tested on: NMDAR1; assay: NMDAR1 protein expression in ARPE-19 cells (immunofluorescence); assay type: cell-based
# Description: as §1, §2
# [10] = tested on: 5-HT2A; assay: 5-HT2A receptor expression in ARPE-19 cells (immunofluorescence); assay type: cell-based; details: acute and chronic psilocin exposure; decreasing tendency
# Description: as §1, §2
# [11] = tested on: NMDAR2B; assay: NMDAR2B protein expression in ARPE-19 cells (immunofluorescence); assay type: cell-based
# Description: as §1, §2
# [12] = tested on: IL-8; assay: IL-8 expression in HCE cells exposed to CM of activated U937 (qPCR); assay type: cell-based, human; details: 0.1 and 1 μM psilocin, 10 h
# Description: as §3, §4, §5
# [13] = tested on: IL-12; assay: IL-12 expression in keratocytes exposed to CM of activated U937 (qPCR); assay type: cell-based, human; details: 0.1 and 1 μM psilocin, 4 and 10 h
# Description: as §3, §4, §5
# [14] = tested on: IL-1β; assay: IL-1β expression in keratocytes exposed to CM of activated U937 (qPCR); assay type: cell-based, human; details: 0.1 and 1 μM psilocin, 4 h
# Description: as §3, §4, §5
# [15] = tested on: TNF-α; assay: TNF-α expression in keratocytes exposed to CM of activated U937 (qPCR); assay type: cell-based, human; details: 0.1 and 1 μM psilocin
# Description: as §3, §4, §5
# [16] = tested on: NMDAR2A; assay: NMDAR2A protein expression in ARPE-19 cells (immunofluorescence); assay type: cell-based
# Description: as §1, §2
# [17] = tested on: IL-8; assay: IL-8 expression in keratocytes exposed to CM of activated U937 (qPCR); assay type: cell-based, human; details: 0.1 and 1 μM psilocin, 4 and 10 h
# Description: as §3, §4, §5
# [18] = after ingestion of psilocybin mushrooms; cited from earlier work
# [19] = tested on: keratocytes; assay: Cell viability, MTT test, keratocytes; assay type: cell-based, human
# Description: (§8) Primary corneal keratocytes were obtained after digestion of human corneas from healthy donors purchased at the Veneto Eye Bank Foundation (Venezia Mestre, Italy). After the corneal epithelium was removed with a cell scraper and the endothelium was enzymatically detached using 0.05% trypsin/0.02% EDTA-solution for 15 minutes at 37° C., the stroma was then cut into 3- to 4-mm pieces and treated overnight at 37° C. with type I collagenase (100 U/ml) and hyaluronidase (2 mg/ml) solutions in Dulbecco's Modified Eagle's Medium (DMEM). Isolated keratocytes were then seeded in monolayer and cultured at 37° C. with 5% CO2 in DMEM containing 10% FBS, 1% penicillin-streptomycin (P/S) and 1% L-glutamine (otherwise known as complete medium). Expanded cells were trypsinized and sub-cultured at a ratio of 1:2. Corneal cells were grown under standard cell culture practices in complete DMEM medium at 37° C., in a 5% CO2 atmosphere. U937 human monocytes were grown in suspension in complete RPMI 1640 medium and passaged twice weekly by dilution using a seeding density of 10^6 cells/ml.
# as §7
# [20] = tested on: corneal cells; assay: Psilocin cytotoxicity in corneal cells; assay type: cell-based, human; details: 0.001 to 10 μM, assessed 3 days after treatment
# Description: as §6, §8, §7
# [21] = 3 and 6 days after treatment, 0.01, 0.1 and 1 μM
# [22] = 0.05 μM, alternating medium with/without psilocin every 24 hours (96 hours)
# Chain of 5-HT2A receptors (P28223 whole entry): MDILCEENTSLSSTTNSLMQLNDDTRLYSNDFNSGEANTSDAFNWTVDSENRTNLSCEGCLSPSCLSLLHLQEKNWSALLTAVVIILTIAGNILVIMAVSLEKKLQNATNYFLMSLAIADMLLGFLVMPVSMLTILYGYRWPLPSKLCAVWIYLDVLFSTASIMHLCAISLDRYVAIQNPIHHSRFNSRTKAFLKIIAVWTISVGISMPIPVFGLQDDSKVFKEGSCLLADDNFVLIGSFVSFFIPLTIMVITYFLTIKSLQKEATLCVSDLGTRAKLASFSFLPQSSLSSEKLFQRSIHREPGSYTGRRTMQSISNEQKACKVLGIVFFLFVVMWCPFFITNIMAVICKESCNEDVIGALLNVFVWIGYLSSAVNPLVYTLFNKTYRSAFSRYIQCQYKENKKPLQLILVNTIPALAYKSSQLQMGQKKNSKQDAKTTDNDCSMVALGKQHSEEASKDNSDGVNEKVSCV
structure (smiles),measurement,setting,value
"CCC(=O)C(C[C@H](C)N(C)C)(c1ccccc1)c1ccccc1 [D methadone, dextromethadone]",Plasma BDNF,[1],statistically significant increase in plasma BDNF
same,Avg % Beta Gal+ cells,[2]; D methadone 10 nM,79.01%
same,Total % Beta Gal+ cells,[2]; D methadone 10 nM,81.29%
same,"% Beta Gal+ cells, single well/duplicate","[2]; D methadone 10 nM, UVB without treatment Avg 85.63514",71.875% and 85.71% and 77.19% and 81.25%
same,"% Beta Gal+ cells, single well/duplicate",[2]; D methadone 500 nM,82.86% and 82.35% and 76.47% and 91.67%
same,Avg % Beta Gal+ cells,[2]; D methadone 500 nM,83.34%
same,Total % Beta Gal+ cells,[2]; D methadone 500 nM,83.94%
same,Nootropic signal,[3]; only the lowest tested dose of 5 mg,elicited a nootropic signal
same,MTD,"[3]; single ascending dose 5-200 mg, nausea and vomiting",150 mg
same,Affinity of 5-HT-2A receptors,[4],nanomolar range
CN(C)CCc1c[nH]c2cccc(O)c12 [psilocin],Expression of 5-HT2C,[5],increased after chronic treatment
same,Collagen type I gene expression,[6],did not change significantly
same,Corneal cell viability,[7]; [21],significant increase in corneal cell viability
same,Cell viability (MTT),"[7]; HCE cells, 0.1 to 1 μM psilocin, up to 6 days",significant increased viability
same,VEGF I gene expression,[8],did not change significantly
same,NMDAR1 expression,[9]; [22],increase of NMDAR1 expression
same,NMDAR1 expression,[9]; alternate incubation or psilocin-containing medium replaced every day (FIGS. 11G-11I context),increased significantly
same,NMDAR1 subunit protein expression,[9]; psilocin 0.05 μM for 6-days,dramatic increase
same,NMDAR1 subunit protein expression,[9]; psilocin 10 μM for 24 hours,"slight, not significant increase"
same,"% Beta Gal+ cells, single well/duplicate",[2]; Psilocin 5 nM,86.67% and 75% and 85.71% and 81.82%
same,Avg % Beta Gal+ cells,[2]; Psilocin 5 nM,82.3%
same,Total % Beta Gal+ cells,[2]; Psilocin 5 nM,64.45%
same,Antisenescence effects,"[2]; higher doses of psilocin (up 24 microM, experiment not shown)",no antisenescence effects
same,Antisenescence effects,[2]; psilocin lower doses (5 nM),no antisenescence effects
same,Expression of 5-HT2A receptor,[10],virtually no effect
same,NMDAR2B expression,[11]; [22],decrease of NMDAR2B expression
same,NMDAR2B subunit protein expression,[11]; psilocin 0.05 μM for 6-days,did not change
same,NMDAR2B subunit protein expression,[11]; psilocin 10 μM for 24 hours,did not change
same,IL-8 gene expression,[12],significant down-regulation
same,IL-12 mRNA expression,[13],significant decrease
same,IL-1β mRNA expression,[14],significant decrease
same,TNF-α mRNA expression,[15],very low and comparable to that of cells treated only with CM
same,NMDAR2A subunit protein expression,[16]; psilocin 0.05 μM for 6-days,dramatic increase
same,NMDAR2A subunit protein expression,[16]; psilocin 10 μM for 24 hours,"slight, not significant increase"
same,IL-8 mRNA expression,[17],significant decrease
same,Psilocin in bile,[18],3102 ng/mL
same,Psilocin in cardiac blood,[18],67 ng/mL
same,Psilocin in peripheral blood,[18],60 ng/mL
same,Psilocin in urine,[18],2230 ng/mL
same,Psilocin in vitreous humor,[18],57 ng/mL
same,Corneal cell viability,[19]; [21],significant increase in corneal cell viability
same,Cell viability (MTT),"[19]; keratocytes, 0.1 to 1 μM psilocin, up to 6 days",significant increased viability
same,Cytotoxic effect in vitro,[20],does not have a cytotoxic effect
